# Patent US4273765A, “Amino sugar derivatives containing trehalose” (Hoffmann-La Roche Inc., priority 1978, dated 1981)
# Columns and labels:
# [1] = test system: E. coli NIHJ SMf; experiment: Antimicrobial spectrum, agar-dilution method; type: cell-based
# [2] = test system: Pseudomonas aeruginosa P2; experiment: Antimicrobial spectrum, agar-dilution method; type: cell-based
# [3] = test system: Pseudomonas aeruginosa A3; experiment: Antimicrobial spectrum, agar-dilution method; type: cell-based
# [4] = test system: Staphylococcus aureus MS3937; experiment: Antimicrobial spectrum, agar-dilution method; type: cell-based
# [5] = test system: hyperglycemia (hyperinsulinemia) following an oral load of native starch; experiment: Hyperglycemia (hyperinsulinemia) following an oral load of native starch; type: in vivo; conditions: 20 min. after wheat starch
# Method: (§4) [Plasma Glucose and insulin 20 min. after carbohydrate ± Trestatin (1.
# g wheat starch/kg or 3.2 g sucrose/kg)]
# [6] = test system: E. coli CF41; experiment: Antimicrobial spectrum, agar-dilution method; type: cell-based
# [7] = test system: Mycobacterium smegmatis ATCC607; experiment: Antimicrobial spectrum, agar-dilution method; type: cell-based
# [8] = molecular target: T1, porcine pancreatic α-amylase (Sus scrofa, UniProt P00690); experiment: Porcine pancreatic α-amylase inhibitory activity (Bernfeld assay); type: biochemical; conditions: IU = amount giving 50% inhibition of 2 units porcine pancreatic α-amylase, pH 6.9, 37° C.
# T1 sequence (P00690 16-511): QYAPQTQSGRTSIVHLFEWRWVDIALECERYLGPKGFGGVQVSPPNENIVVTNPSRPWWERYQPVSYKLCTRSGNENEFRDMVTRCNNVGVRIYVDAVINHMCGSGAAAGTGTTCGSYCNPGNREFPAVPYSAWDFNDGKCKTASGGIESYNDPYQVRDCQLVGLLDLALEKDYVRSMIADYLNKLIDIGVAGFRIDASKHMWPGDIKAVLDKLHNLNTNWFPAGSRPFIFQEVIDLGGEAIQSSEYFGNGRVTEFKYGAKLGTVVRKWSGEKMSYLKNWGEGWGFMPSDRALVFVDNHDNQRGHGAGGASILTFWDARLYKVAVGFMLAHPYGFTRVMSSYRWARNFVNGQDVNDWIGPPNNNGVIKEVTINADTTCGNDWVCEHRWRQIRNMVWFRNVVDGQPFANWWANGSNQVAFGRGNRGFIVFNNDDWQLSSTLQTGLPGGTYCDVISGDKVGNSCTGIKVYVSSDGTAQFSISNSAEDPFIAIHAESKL
# Method: 2 units* of porcine pancreatic α-amylase in 0.1 ml of 6.4 mM ammonium sulfate solution are added to 0.6 ml of 20 mM phosphate buffer (pH 6.9) containing 10 mM sodium chloride and different amounts of Trestatin. The mixture, after equilibration at 37° C. for 5 min. followed by the addition of 0.5 ml of 4% soluble starch solution, is incubated for 5 min. at 37° C. The reaction is terminated by the addition of 2 ml of dinitrosalicylic acid reagent prepared according to the method of P. Bernfeld. The mixture is heated on a boiling water bath for 5 min. and then diluted with 10 ml of water. Absorbance (A1) of the resulting colored solution is measured at 540 nm, and the inhibition of α-amylase activity can be calculated from the following equation: [formula] A0; absorbance without enzyme A2; absorbance without Trestatin
# *1 unit of the α-amylase is the amount of enzyme which catalyzes under the above conditions without Trestatin the formation of reducing sugars equivalent to 1 μmol of maltose.
# Each of said inhibitory activities was determined by the method mentioned above.
# [9] = test system: hyperglycemia induced by cooked rice starch; experiment: Inhibition of hyperglycemia induced by cooked rice starch, mice; type: in vivo; conditions: p.o., dose causing after 20 minutes a 20 percent decrease of hyperglycemia, 2 g/kg cooked rice starch
# Method: (§1) **ED20 is defined as the dose causing after 20 minutes a 20 percent
# (§2) decrease of hyperglycemia induced by oral administration of 2 g/kg body
# (§3) weight cooked rice starch.
# [10] = test system: E. coli CF17; experiment: Antimicrobial spectrum, agar-dilution method; type: cell-based
# [11] = test system: Proteus vulgaris OX19 ATCC6898; experiment: Antimicrobial spectrum, agar-dilution method; type: cell-based
# [12] = test system: E. coli NIHJ; experiment: Antimicrobial spectrum, agar-dilution method; type: cell-based
# [13] = test system: hyperglycemia following an oral load of sucrose; experiment: Hyperglycemia following an oral load of sucrose; type: in vivo; conditions: dose/kg 30.0 mg; 20 min. after 3.2 g sucrose/kg
# Method: as §4
# g wheat starch/kg or 3.2 g sucrose/kg)]
# [14] = test system: Staphylococcus aureus MS9261; experiment: Antimicrobial spectrum, agar-dilution method; type: cell-based
# [15] = test system: Staphylococcus aureus Smith; experiment: Antimicrobial spectrum, agar-dilution method; type: cell-based
# [16] = test system: Serratia marcescens IFO12648; experiment: Antimicrobial spectrum, agar-dilution method; type: cell-based
# [17] = test system: Bacillus subtilis PCI 219; experiment: Antimicrobial spectrum, agar-dilution method; type: cell-based; conditions: Bacillus subtilis PCI 219, agar-dilution
# [18] = test system: Proteus rettgeri; experiment: Antimicrobial spectrum, agar-dilution method; type: cell-based
# [19] = test system: Shigella flexneri; experiment: Antimicrobial spectrum, agar-dilution method; type: cell-based
# [20] = test system: Salmonella typhimurium IFO12529; experiment: Antimicrobial spectrum, agar-dilution method; type: cell-based
# [21] = test system: Staphylococcus aureus FDA209P; experiment: Antimicrobial spectrum, agar-dilution method; type: cell-based
# [22] = test system: rats; experiment: Acute toxicity, oral, rats; conditions: 500 mg/kg administered to rats orally (65-700 times the effective dosage)
# [23] = test system: Bordetella bronchiseptica Aichi 202; experiment: Antimicrobial spectrum, agar-dilution method; type: cell-based; conditions: Bordetella bronchiseptica Aichi 202, agar-dilution
# [24] = test system: E. coli NIHJ STf; experiment: Antimicrobial spectrum, agar-dilution method; type: cell-based
# [25] = test system: hyperglycemia induced by cooked rice starch; experiment: Inhibition of hyperglycemia induced by cooked rice starch, rats; type: in vivo; conditions: p.o., dose causing after 20 minutes a 20 percent decrease of hyperglycemia, 2 g/kg cooked rice starch
# Method: as §1, §2, §3
# [26] = test system: Salmonella paratyphi B; conditions: agar-dilution
# [27] = Titration (in water); type: physicochemical
# [28] = test system: Sarcina lutea ATCC 9341; experiment: Antimicrobial spectrum, agar-dilution method; type: cell-based; conditions: Sarcina lutea ATCC 9341, agar-dilution
# [29] = test system: Pseudomonas aeruginosa IFO12689; experiment: Antimicrobial spectrum, agar-dilution method; type: cell-based
# [30] = Solubility in solvents; type: physicochemical
# Source text: (h) Solubility in solvents:
# [31] = test system: Citrobacter; experiment: Antimicrobial spectrum, agar-dilution method; type: cell-based
# [32] = test system: Candida albicans Yu1200; experiment: Antimicrobial spectrum, agar-dilution method; type: cell-based
# [33] = test system: Klebsiella pneumoniae PCI602; experiment: Antimicrobial spectrum, agar-dilution method; type: cell-based
# [34] = test system: E. coli K-12 ML1630; experiment: Antimicrobial spectrum, agar-dilution method; type: cell-based; conditions: E. coli K-12 ML1630, agar-dilution
structure (smiles),measurement,setting,value
C[C@H]1O[C@H](O[C@H]2[C@H](O)[C@@H](O)[C@@H](O[C@H]3[C@H](O)[C@@H](O)[C@@H](O[C@H]4[C@H](O)[C@@H](O)[C@@H](O[C@H]5O[C@H](CO)[C@@H](O)[C@H](O)[C@H]5O)O[C@@H]4CO)O[C@@H]3CO)O[C@@H]2CO)[C@H](O)[C@@H](O)[C@@H]1N[C@H]1C=C(CO)[C@@H](O[C@H]2O[C@H](CO)[C@@H](O[C@H]3O[C@H](C)[C@@H](NC4C=C(CO)[C@@H](O[C@H]5O[C@H](CO)[C@@H](O[C@H]6O[C@H](C)[C@@H](NC7C=C(CO)[C@@H](O)[C@H](O)[C@H]7O)[C@H](O)[C@H]6O)[C@H](O)[C@H]5O)[C@H](O)[C@H]4O)[C@H](O)[C@H]3O)[C@H](O)[C@H]2O)[C@H](O)[C@H]1O (some centres unmarked) [Trestatin C],Antimicrobial spectrum,[1],> 100 µg/mL
same,Antimicrobial spectrum,[2],> 100 µg/mL
same,Antimicrobial spectrum,[3],> 100 µg/mL
same,Antimicrobial spectrum,[4],> 100 µg/mL
same,"Plasma glucose, starch - load",[5]; dose/kg 0.3 mg,71% of carbohydrate primed controls
same,"Plasma insulin, starch - load",[5]; dose/kg 0.3 mg,51% of carbohydrate primed controls
same,"Plasma glucose, starch - load",[5]; dose/kg 1.0 mg,60% of carbohydrate primed controls
same,"Plasma insulin, starch - load",[5]; dose/kg 1.0 mg,51% of carbohydrate primed controls
same,"Plasma glucose, starch - load",[5]; dose/kg 3.0 mg,58% of carbohydrate primed controls
same,"Plasma insulin, starch - load",[5]; dose/kg 3.0 mg,63% of carbohydrate primed controls
same,Antimicrobial spectrum,[6],> 100 µg/mL
same,Antimicrobial spectrum,[7],> 100 µg/mL
same,Inhibitory activities,[8],4.9 × 10^7 IU/g
same,"ED20, inhibition of hyperglycemia induced by cooked rice starch",[9],0.7 mg/kg
same,Antimicrobial spectrum,[10],> 100 µg/mL
same,Antimicrobial spectrum,[11],> 100 µg/mL
same,Antimicrobial spectrum,[12],> 100 µg/mL
same,"Plasma glucose, sucrose - load",[13],85% of carbohydrate primed controls
same,Antimicrobial spectrum,[14],> 100 µg/mL
same,Antimicrobial spectrum,[15],> 100 µg/mL
same,Antimicrobial spectrum,[16],> 100 µg/mL
same,Antimicrobial spectrum,[17],> 100 µg/mL
same,Antimicrobial spectrum,[18],> 100 µg/mL
same,Antimicrobial spectrum,[19],> 100 µg/mL
same,Antimicrobial spectrum,[20],> 100 µg/mL
same,Antimicrobial spectrum,[21],> 100 µg/mL
same,Acute toxicity,[22],not observed
same,Antimicrobial spectrum,[23],> 100 µg/mL
same,Antimicrobial spectrum,[24],> 100 µg/mL
same,"ED20, inhibition of hyperglycemia induced by cooked rice starch",[25],3.0 mg/kg
same,Antimicrobial spectrum,[26],> 100 µg/mL
same,pKa',[27],5.0
same,Antimicrobial spectrum,[28],> 100 µg/mL
same,Antimicrobial spectrum,[29],> 100 µg/mL
same,Solubility in acetone,[30]; acetone,slightly soluble
same,Solubility in chloroform,[30]; chloroform,insoluble
same,Solubility in dimethylsulfoxide,[30]; dimethylsulfoxide,soluble
same,Solubility in ethanol,[30]; ethanol,slightly soluble
same,Solubility in ethyl acetate,[30]; ethyl acetate,insoluble
same,Solubility in water,[30]; water,easily soluble
same,Antimicrobial spectrum,[31],> 100 µg/mL
same,Antimicrobial spectrum,[32],> 100 µg/mL
same,Antimicrobial spectrum,[33],> 100 µg/mL
same,Antimicrobial spectrum,[34],> 100 µg/mL
